Experimental data: patent publication US8592428B2 (MSD K. K., priority 2008, dated 2013)
pEC50: −log10 of the molar value. Values after ≈ are worked out from the molar mass of the structure shown.

Key:
[1] = target: T1, recombinant human liver GK (Homo sapiens, UniProt P35557); experiment: Glucokinase-activating effect (Thio-NADH coupled G6PDH assay); format: biochemical; details: final glucose concentration 2.5 mM, 30° C.
T1 construct: made in house; host or cells: E. coli
T1 sequence (P35557 1-466 isoform P35557-2): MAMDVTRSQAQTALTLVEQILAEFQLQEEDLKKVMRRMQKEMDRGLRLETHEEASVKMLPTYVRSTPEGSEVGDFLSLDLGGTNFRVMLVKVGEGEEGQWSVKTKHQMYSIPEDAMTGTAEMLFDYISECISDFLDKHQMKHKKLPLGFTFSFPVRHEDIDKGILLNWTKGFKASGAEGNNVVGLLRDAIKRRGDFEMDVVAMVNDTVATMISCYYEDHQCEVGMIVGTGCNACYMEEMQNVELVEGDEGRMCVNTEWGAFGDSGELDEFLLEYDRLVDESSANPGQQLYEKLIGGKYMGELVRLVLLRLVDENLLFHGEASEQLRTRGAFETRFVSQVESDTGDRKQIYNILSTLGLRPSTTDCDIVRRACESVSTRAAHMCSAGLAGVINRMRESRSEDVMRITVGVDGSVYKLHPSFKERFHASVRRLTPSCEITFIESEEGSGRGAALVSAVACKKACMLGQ
From the text: The excellent glucokinase-activating effect of the compounds of formula (I) may be determined by a method described in literature (for example, Diabetes, Vol. 45, pp. 1671-1677, 1996), or in accordance with it.
The glucokinase activity may be determined not by directly measuring glucose-6-phosphate but by measuring the level of Thio-NADH, which is produced when a reporter enzyme, glucose-6-phosphate dehydrogenase produces phosphogluconolactone from glucose-6-phosphate, and based on the level, the degree of glucokinase activation by the compound tested may be determined.
In this assay, used was a recombinant human liver GK, which was expressed by E. coli as a FLAG fusion protein therein and was purified by […] M2 AFFINITY GEL (Sigma).
Using a flat-bottomed 96-well plate, the assay was carried out at 30° C. 69 μl of an assay buffer (25 mM Hepes Buffer/pH=7.2, 2 mM MgCl2, 1 mM ATP, 0.5 mM TNAD, 1 mM dithiothreitol) was put into the plate, and 1 μl of a DMSO solution of the compound or DMSO alone as a control was added thereto. Next, 20 μl of an enzyme mixture (FLAG-GK, 20 U/ml G6PDH) cooled in ice was added to it, and 10 μl of a substrate, 25 mM glucose was added to it, and the reaction was initiated (final glucose concentration=2.5 mM).
After the start of the reaction, the increase in the absorbance at 405 nm was measured for 12 minutes at intervals of 30 seconds, and the increase for the first 5 minutes was used for assessing the compound tested. FLAG-GK was added so that the absorbance increase after 5 minutes in the presence of 1% DMSO could be from 0.04 to 0.06.
The OD level of the DMSO control was set as 100%; and the OD level of the test compound at different concentrations was determined. From the OD level at each concentration, Emax (%) and EC50 (μM) were computed and used as the index of the GK-activating potency of the compound.

[2] = Solubility in water by solution precipitation method (HPLC); format: physicochemical; details: water (2% DMSO), kinetic from dmso stock, from 10 mM DMSO solution, 60 minutes stirring at room temperature, compounds of the present invention
Method: For solubility in water, the solubility of a compound in water was determined by a solution precipitation method.
For an HPLC system, Agilent HPLC 1100 system was used. […] For a shaker, Microincubator M-36 (Taitec) was used. For a plate, a 96-deep well plate (Nunc. 260252) was used. For a well cap, Pre-Slit Well Cap for 96 Well PP (NALGENE. 276011) was used. For a filtration plate, MultiScreen Solubility (Millipore; MSSLBPC10) was used. For dispensation, an 8-channel electronic multipipette, Biohit Proline (Biohit), and a 96-well automatic pipetting device, Biomeck 2000 (Biomeck) were used. For a reagent used, a pure solvent for DMSO ultraviolet absorption spectrum (Dojindo 349-01025) and water (MiliQ water, manufactured by Millipore).
For a DMSO solution, a sample was prepared with DMSO to be precisely 10 mM.
Precise dispensation of 10 μL of a DMSO solution into each well of a 96-well plate was performed. Following addition of 490 μL of water to each of the wells and plate-sealing with 96-well Cap (Agilent No. 5042-1389), intense stirring processing of the plate was performed for 60 minutes at room temperature on a shaker. Subsequently, 200 μL of a treatment sample was added to a plate for centrifugal filtration, and centrifugal filtration of the sample was performed to obtain a filtrate. A sample solution was made by adding 200 μl, of a 50% aqueous acetonitrile solution to the provided filtrate.
Precise dispensation of 10 μL of a DMSO solution into each well of a 96-well plate was performed.
Detection was performed using a multi-wavelength detector (190-370 nm). For a column, the above-mentioned column was used at 40° C. A flow rate was set at 1.2 ml/min, and an amount of an injected sample at 20 μL. For a moving phase, a 0.1% aqueous phosphoric acid solution as a liquid A and acetonitrile as a liquid B were used to carry out analyses in accordance with a time schedule described below.
For the analyses, the data of UV 275 nm were adopted. […] Using the calibration curve, regression calculation of concentrations in water was carried out from Area of sample solutions (water).

pEC50 [1] | solubility at 60 min [2] [µM] | Emax ([1]; OD level of DMSO control = 100%) [%] | Compound
– | 128 (≈ 58.8 µg/mL) | – | CC(=O)N1CCC[C@@H]1c1cc2[nH]c(-c3cnccn3)cc2cc1Oc1ccc(OCCO)nc1 [Example 12, 6-[(R)-1-acetylpyrrolidin-2-yl]-5-[6-(2-hydroxyethoxy)pyridin-3-yloxy]-2-(pyrazin-2-yl)-1H-indole]
– | > 170 | – | CC(=O)N1CCC[C@@H]1c1cc2[nH]c(-c3cnc(CO)cn3)cc2cc1Oc1ccc(OCCO)nc1 [Example 14, 6-[(R)-1-acetylpyrrolidin-2-yl]-5-[6-(2-hydroxyethoxy)pyridin-3-yloxy]-2-(5-hydroxymethylpyrazin-2-yl)-1H-indole]
– | 133 (≈ 58.8 µg/mL) | – | COCc1ccc(Oc2cc3cc(-c4ccccn4)[nH]c3cc2[C@H]2CCCN2C(C)=O)cn1 [Example 18, 6-[(R)-1-acetylpyrrolidin-2-yl]-5-(6-methoxymethylpyridin-3-yloxy)-2-(pyridin-2-yl)-1H-indole]
– | > 170 | – | CC(=O)N1CCC[C@@H]1c1cc2[nH]c(-c3cnccn3)cc2cc1Oc1ccc(CCO)nc1 [Example 19, 6-[(R)-1-acetylpyrrolidin-2-yl]-5-[6-(2-hydroxyethyl)pyridin-3-yloxy]-2-(pyrazin-2-yl)-1H-indole]
– | 122 (≈ 59.1 µg/mL) | – | CC(=O)N1CCC[C@@H]1c1cc2[nH]c(-c3cnccn3)cc2cc1Oc1ccc(C(=O)N2CCC2)nc1 [Example 20, 6-[(R)-1-acetylpyrrolidin-2-yl]-5-[6-(azetidin-1-ylcarbonyl)pyridin-3-yloxy]-2-(pyrazin-2-yl)-1H-indole]
– | > 170 | – | CC(=O)N1CCC[C@@H]1c1cc2[nH]c(-c3cnc(C(C)(C)O)cn3)cc2cc1Oc1ccc(C(=O)N2CCC2)nc1 [Example 21, 6-[(R)-1-acetylpyrrolidin-2-yl]-5-[6-(azetidin-1-ylcarbonyl)pyridin-3-yloxy]-2-[5-(1,1-dimethylhydroxymethyl)pyrazin-2-yl]-1H-indole]
– | > 170 | – | CC(=O)N1CCC[C@@H]1c1cc2[nH]c(-c3cnc(C(C)(C)O)cn3)cc2cc1Oc1ccc(S(C)(=O)=O)nc1 [Example 22, 6-[(R)-1-acetylpyrrolidin-2-yl]-2-[5-(1,1-dimethylhydroxymethyl)pyrazin-2-yl]-5-(6-methylsulfonylpyridin-3-yloxy)-1H-indole]
– | 77.6 (≈ 39.7 µg/mL) | – | CC(=O)N1CCC[C@@H]1c1cc2[nH]c(-c3ccc(CO)cn3)cc2cc1Oc1ccc(C(=O)N2CCC2)nc1 [Example 23, 6-[(R)-1-acetylpyrrolidin-2-yl]-5-[6-(azetidin-1-ylcarbonyl)pyridin-3-yloxy]-2-(5-hydroxymethylpyridin-2-yl)-1H-indole]
– | 142 (≈ 76.6 µg/mL) | – | CC(=O)N1CCC[C@@H]1c1cc2[nH]c(-c3ccc(C(C)(C)O)cn3)cc2cc1Oc1ccc(C(=O)N2CCC2)nc1 [Example 24, 6-[(R)-1-acetylpyrrolidin-2-yl]-5-[6-(azetidin-1-ylcarbonyl)pyridin-3-yloxy]-2-[5-(1,1-dimethylhydroxymethyl)pyridin-2-yl]-1H-indole]
– | > 170 | – | CC(=O)N1CCC[C@@H]1c1cc2[nH]c(-c3cnccn3)cc2cc1Oc1ccc(C(=O)N(C)C)nc1 [Example 25, 6-[(R)-1-acetylpyrrolidin-2-yl]-5-[6-(N,N-dimethylcarbamoyl)pyridin-3-yloxy]-2-(pyrazin-2-yl)-1H-indole]

Further lines, the molecule ahead of its results:

Compound | pEC50 [1] | solubility at 60 min [2] [µM] | Emax ([1]; OD level of DMSO control = 100%) [%]
CC(=O)N1CCC[C@@H]1c1cc2[nH]c(-c3cnccn3)cc2cc1Oc1ccc(S(C)(=O)=O)nc1 [Example 2] | 7.05 | > 170 | –
CC(=O)N1CCC[C@@H]1c1cc2[nH]c(-c3cnc(C)cn3)cc2cc1Oc1ccc(S(C)(=O)=O)nc1 [Example 3, 6-[(R)-1-acetylpyrrolidin-2-yl]-5-(6-methylsulfonylpyridin-3-yloxy)-2-(5-methylpyrazin-2-yl)-1H-indole] | 6.92 | > 170 | –
CC(=O)N1CCC[C@@H]1c1cc2[nH]c(-c3ccn(C)n3)cc2cc1Oc1ccc(S(C)(=O)=O)nc1 [Example 4, 6-[(R)-1-acetylpyrrolidin-2-yl]-2-(1-methyl-1H-pyrazol-3-yl)-5-(6-methylsulfonylpyridin-3-yloxy)-1H-indole] | 6.74 | > 170 | 943
CNC(=O)c1ccc(-c2cc3cc(Oc4ccc(S(C)(=O)=O)nc4)c([C@H]4CCCN4C(C)=O)cc3[nH]2)nc1 [Example 5, 6-[(R)-1-acetylpyrrolidin-2-yl]-2-[5-(N-methylcarbamoyl)pyridin-2-yl]-5-(6-methylsulfonylpyridin-3-yloxy)-1H-indole] | – | 112 (≈ 59.5 µg/mL) | –
CC(=O)N1CCC[C@@H]1c1cc2[nH]c(-c3cnccn3)cc2cc1Oc1ccc(CO)nc1 [Example 6, 6-[(R)-1-acetylpyrrolidin-2-yl]-5-(6-hydroxymethylpyridin-3-yloxy)-2-(pyrazin-2-yl)-1H-indole] | – | > 170 | –
CC(=O)N1CCC[C@@H]1c1cc2[nH]c(-c3cnc(C)cn3)cc2cc1Oc1ccc(CO)nc1 [Example 7, 6-[(R)-1-acetylpyrrolidin-2-yl]-5-(6-hydroxymethylpyridin-3-yloxy)-2-(5-methylpyrazin-2-yl)-1H-indole] | 6.92 | > 170 | –
CC(=O)N1CCC[C@@H]1c1cc2[nH]c(-c3ccc(C(C)(C)O)cn3)cc2cc1Oc1ccc(CO)nc1 [Example 8, 6-[(R)-1-acetylpyrrolidin-2-yl]-2-[5-(1,1-dimethylhydroxymethyl)pyridin-2-yl]-5-(6-hydroxymethylpyridin-3-yloxy)-1H-indole] | – | > 170 | –
CC(=O)N1CCC[C@@H]1c1cc2[nH]c(-c3ccc(C(C)(C)O)cn3)cc2cc1Oc1ccc(S(C)(=O)=O)nc1 [Example 9, 6-[(R)-1-acetylpyrrolidin-2-yl]-2-[5-(1,1-dimethylhydroxymethyl)pyridin-2-yl]-5-(6-methylsulfonylpyridin-3-yloxy)-1H-indole] | 6.89 | 152 (≈ 81.2 µg/mL) | –
CC(=O)N1CCC[C@@H]1c1cc2[nH]c(-c3cnc(CO)cn3)cc2cc1Oc1ccc(S(C)(=O)=O)nc1 [Example 10, 6-[(R)-1-acetylpyrrolidin-2-yl]-2-(5-hydroxymethylpyrazin-2-yl)-5-(6-methylsulfonylpyridin-3-yloxy)-1H-indole] | 6.96 | 95.1 (≈ 48.3 µg/mL) | –
CC(=O)N1CCC[C@@H]1c1cc2[nH]c(-c3ccccn3)cc2cc1Oc1ccc(OCCO)nc1 [Example 11, 6-[(R)-1-acetylpyrrolidin-2-yl]-5-[6-(2-hydroxyethoxy)pyridin-3-yloxy]-2-(pyridin-2-yl)-1H-indole] | – | 48.6 (≈ 22.3 µg/mL) | –
